IC50 data for 13 compounds are collected here from patent US20250161307A1, “PYRAZOLOPYRIMIDINES AS MODULATORS OF SPERMINE OXIDASE” (Janssen Pharmaceutica NV, priority 2022, published 2025).

Structures can show the parent of a compound that is named as a salt.

The target in one test is hPAOX (Homo sapiens (Human), UniProt Q6QHF9). In words: Human PAOX assay (HyPerBlu chemiluminescent detection of hydrogen peroxide). The test is classed as biochemical. The settings on record: 60 pM recombinant PAOX, 20 μM N-acetylspermine substrate. The method, then: (§1) The direct detection of hydrogen peroxide produced from the enzymatic reaction of hSMOX or hPAOX in a biochemical assay format was measured using HyPerBlu (Lumigen, Southfield, MI), a small molecule boronate probe that reacts with hydrogen peroxide to generate a chemiluminescent signal. Inhibition of hSMOX or hPAOX enzyme results in a decrease in luminescence.
The hPAOX assay was run and the data analyzed similarly to the hSMOX assay described above, except the reactions contained 60 pM recombinant PAOX with an N-terminal His tag expressed from sf9 insect cells and used 20 μM N-acetylspermine as the substrate.

The target of a further test is SMOX (Homo sapiens (Human), UniProt Q9NWM0). In words: Human SMOX assay (HyPerBlu chemiluminescent detection of hydrogen peroxide). The test is classed as biochemical. The settings on record: 2.5 nM full length hSMOX, spermine substrate, 1 h at room temperature, luminescence read; read-out: SMOx_IC50. The procedure: as §1
Test compounds (75 nL) dissolved in DMSO were added to a 384-well white assay plate (Greiner Bio-one, catalog #784075) using an ECHO Acoustic Dispenser (Labcyte). Each compound was serially diluted 3-fold in DMSO to prepare an 11-point dose response curve (columns 1-22). Column 23 and 24 contained 75 nL of 2 mM chlorhexidine and DMSO, respectively, to represent the 100% inhibited versus the neutral control reactions.
Subsequently, 3 μL/well of the substrate solution prepared in assay buffer (10 mM Hepes, pH 7.4, 150 mM NaCl, 1 mM EGTA, 0.01% Pluronic F-127, 0.05% ovalbumin) was dispensed into the assay plate followed by 3 μL/well of full length hSMOX enzyme with an N-terminal His tag from E. coli prepared in assay buffer to initiate the reactions. After a 1 h incubation at room temperature, 6 μL/well of HyPerBlu was added. After a 30 min incubation, the hydrogen peroxide product generated from the hSMOX reactions was measured using an endpoint luminescence read on the PHERAStar FS/FSX microplate reader (BMG LABTECH).
The final assay conditions included 10 mM Hepes, pH 7.4, 150 mM NaCl, 1 mM EGTA, 0.01% Pluronic F-127, 0.05% ovalbumin, 2.5 nM hSMOX, 30 µM spermine, and 1.25% DMSO.
Dose-response curves were fit and compound IC50 values were determined using Genedata Screener (Genedata AG).

SMOX, sequence (Q9NWM0 whole entry): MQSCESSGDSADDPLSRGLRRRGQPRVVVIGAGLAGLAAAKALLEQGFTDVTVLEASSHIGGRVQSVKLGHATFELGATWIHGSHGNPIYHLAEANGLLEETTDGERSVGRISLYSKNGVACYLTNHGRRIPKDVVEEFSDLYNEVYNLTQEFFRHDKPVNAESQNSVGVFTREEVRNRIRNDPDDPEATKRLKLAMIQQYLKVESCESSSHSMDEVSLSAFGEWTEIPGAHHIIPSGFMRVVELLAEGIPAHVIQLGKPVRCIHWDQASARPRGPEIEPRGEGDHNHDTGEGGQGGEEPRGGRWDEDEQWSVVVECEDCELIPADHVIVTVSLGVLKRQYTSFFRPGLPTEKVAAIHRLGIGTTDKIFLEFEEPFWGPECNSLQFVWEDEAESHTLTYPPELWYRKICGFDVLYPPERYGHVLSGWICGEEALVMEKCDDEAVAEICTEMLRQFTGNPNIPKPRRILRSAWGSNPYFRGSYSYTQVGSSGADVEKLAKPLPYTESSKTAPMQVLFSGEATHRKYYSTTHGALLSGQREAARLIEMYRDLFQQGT
hPAOX, sequence (Q6QHF9 whole entry): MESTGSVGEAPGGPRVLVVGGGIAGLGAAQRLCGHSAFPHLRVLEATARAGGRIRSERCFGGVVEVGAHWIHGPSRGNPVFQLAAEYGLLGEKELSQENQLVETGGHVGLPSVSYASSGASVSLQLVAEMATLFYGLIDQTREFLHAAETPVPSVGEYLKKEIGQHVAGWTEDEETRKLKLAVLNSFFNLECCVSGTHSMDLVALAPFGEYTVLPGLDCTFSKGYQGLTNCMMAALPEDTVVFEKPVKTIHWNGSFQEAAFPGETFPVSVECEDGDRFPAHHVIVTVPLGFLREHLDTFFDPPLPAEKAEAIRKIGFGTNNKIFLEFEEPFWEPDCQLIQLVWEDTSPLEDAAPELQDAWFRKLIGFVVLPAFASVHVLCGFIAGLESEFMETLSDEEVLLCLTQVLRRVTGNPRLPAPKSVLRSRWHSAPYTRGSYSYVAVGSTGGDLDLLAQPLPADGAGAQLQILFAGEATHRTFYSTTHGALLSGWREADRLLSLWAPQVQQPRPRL

`CN1CC[C@@H](NC(=O)c2cc3nc(-c4ccccc4)cc(N4CCCCC4)n3n2)C1` (single isomer, unassigned) [Example 72, (*R)—N-(1-methylpyrrolidin-3-yl)-5-phenyl-7-(piperidin-1-yl)pyrazolo[1,5-a]pyrimidine-2-carboxamide trifluoroacetate]: the IC50 at hPAOX is 7140 nM; at SMOX, 1010 nM.
In the same order, the values of `CN1CC[C@H](NC(=O)c2cc3nc(-c4ccccc4)cc(N4CCCCC4)n3n2)C1` (single isomer, unassigned) [Example 73, (*S)—N-(1-methylpyrrolidin-3-yl)-5-phenyl-7-(piperidin-1-yl)pyrazolo[1,5-a]pyrimidine-2-carboxamide trifluoroacetate] are 4210 nM and 1030 nM.
With `O=C(NC1CN(Cc2ccccc2)C1)c1cc2nc(-c3ccccc3)cc(-c3ccccc3)n2n1` [Example 3, N-(1-Benzylazetidin-3-yl)-5,7-diphenylpyrazolo[1,5-a]pyrimidine-2-carboxamide], the results for the IC50 at hPAOX and at SMOX were 4540 nM and 4360 nM, respectively.
Regarding `CC(C)N1CCC(NC(=O)c2cc3nc(-c4ccccc4)cc(-c4ccccc4)n3n2)C1` (stereo not shown) [Example 4, N-(1-Isopropylpyrrolidin-3-yl)-5,7-diphenylpyrazolo[1,5-a]pyrimidine-2-carboxamide], the IC50 on hPAOX turned out to be 8720 nM; at SMOX it was 599 nM.
Take `CCN1CCC(NC(=O)c2cc3nc(-c4ccccc4)cc(-c4ccccc4)n3n2)C1` (stereo not shown) [Example 5, N-(1-Ethylpyrrolidin-3-yl)-5,7-diphenylpyrazolo[1,5-a]pyrimidine-2-carboxamide]: the IC50 on hPAOX was 914 nM; at SMOX, 367 nM.
Regarding `CN1CCC(NC(=O)c2cc3nc(-c4ccccc4)cc(-c4ccccc4)n3n2)C1` (stereo not shown) [Example 6, N-(1-Methylpyrrolidin-3-yl)-5,7-diphenylpyrazolo[1,5-a]pyrimidine-2-carboxamide], the IC50 came to 4950 nM on hPAOX and 230 nM at SMOX.
For `CN1CC[C@H](NC(=O)c2cc3nc(-c4ccccc4)cc(-c4ccccc4)n3n2)C1` [Example 7, (S)—N-(1-Methylpyrrolidin-3-yl)-5,7-diphenylpyrazolo[1,5-a]pyrimidine-2-carboxamide], the IC50 on hPAOX came to 1330 nM; on SMOX, 712 nM.
On to `CN1CC[C@@H](NC(=O)c2cc3nc(-c4ccccc4)cc(-c4ccccc4)n3n2)C1` [Example 8, (R)—N-(1-Methylpyrrolidin-3-yl)-5,7-diphenylpyrazolo[1,5-a]pyrimidine-2-carboxamide], for which the IC50 at hPAOX came out at 10700 nM; on SMOX, 393 nM.
For the compound `O=C(NCCCc1ccncc1)c1cc2nc(-c3ccccc3)cc(-c3ccccc3)n2n1` [Example 9, 5,7-Diphenyl-N-(3-(pyridin-4-yl)propyl)pyrazolo[1,5-a]pyrimidine-2-carboxamide], the IC50 was 1120 nM at hPAOX and 195 nM at SMOX.
Regarding `CN(C)CCNC(=O)c1cc2nc(-c3ccccc3)cc(-c3ccccc3)n2n1` [Example 10, N-(2-(Dimethylamino)ethyl)-5,7-diphenylpyrazolo[1,5-a]pyrimidine-2-carboxamide], the IC50 was found to be 1380 nM at hPAOX and 617 nM at SMOX.
Regarding `CN(CCCn1ccnc1)C(=O)c1cc2nc(-c3ccccc3)cc(-c3ccccc3)n2n1` [Example 11, N-(3-(1H-Imidazol-1-yl)propyl)-N-methyl-5,7-diphenylpyrazolo[1,5-a]pyrimidine-2-carboxamide], the IC50 on hPAOX came out at 10300 nM; on SMOX, 567 nM.
For the compound `O=C(NCCCN1CCOCC1)c1cc2nc(-c3ccccc3)cc(-c3ccccc3)n2n1` [Example 13, N-(3-Morpholinopropyl)-5,7-diphenylpyrazolo[1,5-a]pyrimidine-2-carboxamide], the figures for the IC50 at hPAOX and on SMOX were 5260 nM and 604 nM, respectively.
In the case of `COc1ccc(-c2cc(-c3ccccc3)nc3cc(C(=O)NCCCn4ccnc4)nn23)cc1` [Example 79, N-(3-(1H-imidazol-1-yl)propyl)-7-(4-methoxyphenyl)-5-phenylpyrazolo[1,5-a]pyrimidine-2-carboxamide], the IC50 on SMOX worked out at 242 nM.
